Results on 15 sequences are retold here after PMC2866539, “HLA Class I Binding 9mer Peptides from Influenza A Virus Induce CD4^+ T Cell Responses” (PLoS ONE, 2010).

As a reminder, the Kd is the constant that tells how readily two partners part at equilibrium. Low readings indicate tighter binding, high ones weaker binding.

One assay addresses HLA-B7 (Homo sapiens, UniProt P01889). As to the kind of experiment: biochemical. The assay is classed as binding.
The target in another assay is T1, DPA1*0103/DPB1*0401 (Homo sapiens, UniProt P04440+P20036).
T1 construct: made in house
T1 sequence (P20036 32-222 limits assumed): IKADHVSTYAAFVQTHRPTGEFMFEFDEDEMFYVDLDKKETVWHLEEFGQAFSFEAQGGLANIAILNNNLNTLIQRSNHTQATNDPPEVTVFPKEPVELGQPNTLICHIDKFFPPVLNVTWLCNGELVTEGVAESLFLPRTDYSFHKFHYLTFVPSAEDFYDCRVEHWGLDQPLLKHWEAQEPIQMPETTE
T1 sequence (P04440 30-225 limits assumed): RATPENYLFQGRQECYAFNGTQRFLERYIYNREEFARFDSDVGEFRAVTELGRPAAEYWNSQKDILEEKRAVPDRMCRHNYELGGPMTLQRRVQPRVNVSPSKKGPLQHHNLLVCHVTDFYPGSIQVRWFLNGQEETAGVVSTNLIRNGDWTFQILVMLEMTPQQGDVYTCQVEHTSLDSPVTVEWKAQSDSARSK
The experiment in a line: biochemical. It counts as binding.

Another assay addresses DRA1*0101/DRB1*0301 (Homo sapiens, UniProt P01903+P01911, A100K/A102G/A103R/A169T/F55Y/I96L/K41T/L162R/M171V/P40S/Q125H/Q178H/Q39Y/R42S/S66N/T106N/T262R/W38E/Y61H). As to the kind of experiment: biochemical. The assay is classed as binding.
The target of another assay is T2, DRA1*0101/DRB1*0101 (Homo sapiens, UniProt P01903+P01911, A100R/D57E/F55L/F60I/F76Y/I96L/L162R/M171V/P40L/Q125E/R42F/V115G/Y59C).
T2 construct: made in house
As to the kind of experiment: biochemical. The assay is classed as binding.

The target of the next assay is DRA1*0101/DRB3*0301 (Homo sapiens, UniProt P01903+P79483, A169T/A212P/D57E/G115V/L67V/Q178H/R103Q/R40L/Y55F). As to the kind of experiment: biochemical. It counts as binding.
The target in another assay is T3, DRA1*0101/DRB5*0101 (Homo sapiens, UniProt P01903+Q30154).
T3 construct: made in house
As to the kind of experiment: biochemical. It counts as binding.

The target in a further assay is T4, DRA1*0101/DRB1*0401 (Homo sapiens, UniProt P01903+P01911, A100K/A169T/F76Y/I96L/K127E/L162R/M171V/N62H/P40V/Q125Y/R42H/S133A/S149N/S66Y/V115G/V209L/W38E).
T4 construct: made in house
As to the kind of experiment: biochemical. It counts as binding.

The next assay addresses DRA1*0101/DRB1*0302 (Homo sapiens, UniProt P01903+P01911, A100K/A102G/A103R/A169T/D57E/F76Y/I96L/K41T/L162R/M171V/P40S/Q125H/Q178H/Q39Y/R42S/S66N/T106N/T262R/V115G/W38E/Y61H). The experiment in a line: biochemical. It counts as binding.
The target of another assay is HLA-A3 (Homo sapiens, UniProt P04439). The experiment in a line: biochemical.
Assay [1] relates to PBMC from HLA-matched donors. It counts as cell-based, human.
The subject of assay [2] is PBMC from responding donors. It counts as cell-based, human.
A further assay deals with freshly harvested PBMC. To be noted: cited from earlier work.

Where no end group is shown, it is not given here.

Chain of HLA-B7 (P01889 25-299): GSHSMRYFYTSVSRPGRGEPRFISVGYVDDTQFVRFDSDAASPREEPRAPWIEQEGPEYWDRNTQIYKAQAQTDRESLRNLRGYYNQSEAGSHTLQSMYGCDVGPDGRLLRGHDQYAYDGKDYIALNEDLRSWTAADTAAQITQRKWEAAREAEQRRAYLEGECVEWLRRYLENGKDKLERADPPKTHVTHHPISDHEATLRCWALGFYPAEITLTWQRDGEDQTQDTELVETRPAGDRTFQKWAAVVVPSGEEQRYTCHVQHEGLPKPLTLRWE
Chain of HLA-B7 (P61769 21-119, further chain): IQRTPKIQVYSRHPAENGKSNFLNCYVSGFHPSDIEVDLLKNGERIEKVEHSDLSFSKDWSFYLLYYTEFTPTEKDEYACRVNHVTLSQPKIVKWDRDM
Chain of DRA1*0101/DRB1*0301 (P01903 26-254 limits assumed, other chains not shown): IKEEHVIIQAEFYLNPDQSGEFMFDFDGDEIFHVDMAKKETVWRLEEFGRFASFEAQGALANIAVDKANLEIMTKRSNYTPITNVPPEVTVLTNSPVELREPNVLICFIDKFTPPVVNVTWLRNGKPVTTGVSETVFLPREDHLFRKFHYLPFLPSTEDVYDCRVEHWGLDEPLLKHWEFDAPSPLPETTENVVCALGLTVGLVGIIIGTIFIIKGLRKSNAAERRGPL
Chain of DRA1*0101/DRB3*0301 (P01903 26-254 limits assumed): as the sequence (P01903 26-254 limits assumed, other chains not shown) above
Chain of DRA1*0101/DRB3*0301 (P79483 30-266 R40L/Y55F/D57E/L67V/R103Q/G115V/A169T/Q178H/A212P limits assumed): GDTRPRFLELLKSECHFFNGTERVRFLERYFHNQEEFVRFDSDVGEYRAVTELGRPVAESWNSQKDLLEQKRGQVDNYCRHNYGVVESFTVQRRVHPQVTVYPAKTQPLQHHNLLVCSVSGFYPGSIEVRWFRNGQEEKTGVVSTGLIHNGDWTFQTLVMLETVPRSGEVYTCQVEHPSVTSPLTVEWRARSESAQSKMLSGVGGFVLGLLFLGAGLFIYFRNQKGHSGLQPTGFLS
Chain of HLA-A3 (P04439 25-299): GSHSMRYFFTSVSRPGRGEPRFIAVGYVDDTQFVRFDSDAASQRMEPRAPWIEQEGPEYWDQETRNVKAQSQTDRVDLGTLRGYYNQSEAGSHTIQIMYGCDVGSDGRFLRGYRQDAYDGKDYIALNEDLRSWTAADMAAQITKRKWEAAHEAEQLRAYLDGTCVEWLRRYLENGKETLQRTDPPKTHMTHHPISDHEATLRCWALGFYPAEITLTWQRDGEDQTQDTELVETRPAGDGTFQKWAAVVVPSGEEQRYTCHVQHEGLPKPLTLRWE
Chain of HLA-A3 (P61769 21-119, further chain): as the sequence (P61769 21-119, further chain) above

Take LPFHNVHPL [PF-147]: the dissociation constant (Kd) on HLA-B7 is 0.006 µM; on DPA1*0103/DPB1*0401 it was greater than 5 µM; on DRA1*0101/DRB1*0301, greater than 5 µM; on DRA1*0101/DRB1*0101, greater than 5 µM; at DRA1*0101/DRB3*0301, greater than 5 µM; at DRA1*0101/DRB5*0101, 3.7 µM. The Kd at DRA1*0101/DRB1*0401 and on DRA1*0101/DRB1*0302 was greater than 5 µM in each case.
For IAPWYAFAL [PF-154], the equilibrium dissociation constant (Kd) is greater than 5 µM at DPA1*0103/DPB1*0401; greater than 5 µM on DRA1*0101/DRB1*0301; greater than 5 µM at DRA1*0101/DRB1*0101; greater than 5 µM on DRA1*0101/DRB3*0301; 1.7 µM at DRA1*0101/DRB5*0101; greater than 5 µM at DRA1*0101/DRB1*0401. At DRA1*0101/DRB1*0302, this sequence gave a Kd greater than 5 µM.
LPFQNVHPV [PF-150]: the dissociation constant Kd on HLA-B7 was 0.161 µM; at DPA1*0103/DPB1*0401, greater than 5 µM; on DRA1*0101/DRB1*0301 it was greater than 5 µM; at DRA1*0101/DRB1*0101 it was greater than 5 µM; on DRA1*0101/DRB3*0301, greater than 5 µM; on DRA1*0101/DRB5*0101 it was 1.2 µM. Besides, the Kd on DRA1*0101/DRB1*0401 and at DRA1*0101/DRB1*0302 was greater than 5 µM in each case.
Consider TIHDRIPHR [PF-116], for which the Kd at HLA-A3 is 0.062 µM.
As to ETIVLLRAF [PF-113], the Kd at DPA1*0103/DPB1*0401 was greater than 5 µM; on DRA1*0101/DRB1*0301 it was greater than 5 µM; on DRA1*0101/DRB1*0101, 3.73 µM; on DRA1*0101/DRB3*0301, greater than 5 µM; at DRA1*0101/DRB5*0101, 0.78 µM; at DRA1*0101/DRB1*0401, greater than 5 µM. Also, the Kd on DRA1*0101/DRB1*0302 was greater than 5 µM.
As to ILWILDRLF [PF-140], the “+Peptide, IFNγ spot forming cell numbers” value in assay [1] is given as 17±4 per 10^5 PBMC. For the same sequence, in assay [2], the “SFC/1×10^5 PBMC+Peptide, IVA12” value is 1±1 SFC/1×10^5 PBMC; the “SFC/1×10^5 PBMC+Peptide, Isotype” value is 32±3 SFC/1×10^5 PBMC; the “SFC/1×10^5 PBMC+Peptide, W6/32” value was found to be 43±19 SFC/1×10^5 PBMC.
Consider LVSLGAISF [PF-148], for which the Kd was greater than 5 µM at DPA1*0103/DPB1*0401; greater than 5 µM at DRA1*0101/DRB1*0301; 4.34 µM on DRA1*0101/DRB1*0101; greater than 5 µM at DRA1*0101/DRB3*0301; greater than 5 µM on DRA1*0101/DRB5*0101; greater than 5 µM at DRA1*0101/DRB1*0401. The sequence also displayed a Kd on DRA1*0101/DRB1*0302 greater than 5 µM.
LMNELGVPF [PF-141]: the Kd at DPA1*0103/DPB1*0401 is greater than 5 µM; on DRA1*0101/DRB1*0301 it was greater than 5 µM; at DRA1*0101/DRB1*0101 it was greater than 5 µM; on DRA1*0101/DRB3*0301, 4.01 µM; at DRA1*0101/DRB5*0101 it was greater than 5 µM; at DRA1*0101/DRB1*0401, greater than 5 µM. The sequence further had a Kd at DRA1*0101/DRB1*0302 greater than 5 µM.
Turning to DPLVVAASI [PF-146], in [1], the “+Peptide, IFNγ spot forming cell numbers” value is 42±8 per 10^5 PBMC. In assay [2], the “SFC/1×10^5 PBMC+Peptide, IVA12” value came out at 2±2 SFC/1×10^5 PBMC; the “SFC/1×10^5 PBMC+Peptide, Isotype” value is recorded as 17±1 SFC/1×10^5 PBMC; the “SFC/1×10^5 PBMC+Peptide, W6/32” value is 18±3 SFC/1×10^5 PBMC. In the assay with freshly harvested PBMC, the “antigenicity in ELISPOT of Assarsson et al” value is on record as “failed to show antigenicity”.
Regarding IMLKANFSV [PF-103], the Kd is greater than 5 µM at DPA1*0103/DPB1*0401; greater than 5 µM at DRA1*0101/DRB1*0301; 3.43 µM on DRA1*0101/DRB1*0101; 0.018 µM on DRA1*0101/DRB3*0301; greater than 5 µM on DRA1*0101/DRB5*0101; 1.39 µM on DRA1*0101/DRB1*0401. In addition, the Kd at DRA1*0101/DRB1*0302 was greater than 5 µM.
For “YKYVKQNTLKLAT [HA306–318, reference compound]”, the Kd on DPA1*0103/DPB1*0401 is greater than 5 µM; on DRA1*0101/DRB1*0301, 0.026 µM; at DRA1*0101/DRB1*0101 it was 0.108 µM; at DRA1*0101/DRB3*0301, 0.003 µM; at DRA1*0101/DRB5*0101, 0.012 µM; on DRA1*0101/DRB1*0401, 0.015 µM. Further, on DRA1*0101/DRB1*0302, the Kd came to 0.053 µM.
For the sequence YPRYPGVRC [PF-145], the equilibrium dissociation constant (Kd) at HLA-B7 was 0.011 µM.
For the sequence YVKQNTLKL [PF-152], the Kd on HLA-B7 was 0.072 µM; on DPA1*0103/DPB1*0401, greater than 5 µM; on DRA1*0101/DRB1*0301 it was greater than 5 µM; at DRA1*0101/DRB1*0101, 1.2 µM; on DRA1*0101/DRB3*0301, 0.356 µM; on DRA1*0101/DRB5*0101, 0.405 µM. For the same sequence, the results for the dissociation constant Kd on DRA1*0101/DRB1*0401 and on DRA1*0101/DRB1*0302 were 0.226 µM and 2.22 µM, respectively.
Regarding “YILLKKILSSRFNQM [hypothetical protein 239–253, reference compound]”, the Kd on DPA1*0103/DPB1*0401 stood at 0.025 µM; at DRA1*0101/DRB5*0101, 0.017 µM.
For VTIGECPKY [PF-110], in assay [1], the “+Peptide, IFNγ spot forming cell numbers” value is 247±13 per 10^5 PBMC. In assay [2], the “SFC/1×10^5 PBMC+Peptide, IVA12” value is 5±3 SFC/1×10^5 PBMC; the “SFC/1×10^5 PBMC+Peptide, Isotype” value turned out to be 163±28 SFC/1×10^5 PBMC; the “SFC/1×10^5 PBMC+Peptide, W6/32” value came to 165±4 SFC/1×10^5 PBMC.
